Consider one compound from patent publication US20180230122A1, “PRODUCTION METHOD FOR HETEROARYLCARBOXYLIC ACID ESTER DERIVATIVE, PRODUCTION INTERMEDIATE THEREOF, AND CRYSTAL” (EA PHARMA CO., LTD., priority 2014, published 2018).

A short description of this series: Preservation stability of the crystal at 40° C/75% RH for 6 months (water content by Karl-Fischer, content by HPLC). The format is physicochemical. As to conditions: for content (%) (converted into dehydrated form): HPLC method; for water content (%): Karl-Fischer method. How it is done: A crystal of 3-[5-(4-carbamimidoyl-2-fluorophenoxy)carbonyl-2-thienyl]-2,2-dimethylpropanoic acid hydrochloride obtained by the method of Example 3 was preserved for 6 months under 40° C/75% RH conditions. […] Therefore, the crystalline form is useful as a crystalline form of a drug substance for pharmaceutical products.
The water content was measured by the Karl-Fischer method, and the content was measured by the HPLC method using a column charged with octadecylsilyl silica gel for liquid chromatography.

Structures can show the parent of a compound that is named as a salt.

Take `CC(C)(Cc1ccc(C(=O)Oc2ccc(C(=N)N)cc2F)s1)C(=O)O` [Example 3, 3-[5-(4-carbamimidoyl-2-fluorophenoxy)carbonyl-2-thienyl]-2,2-dimethylpropanoic acid hydrochloride]: under “6 months at 40° C/75% RH”, the “content (%) (converted into dehydrated form)” value was determined as 99.5% and the “water content (%)” value was found to be 0.1%. Further, the “preservation stability of the crystal” value (40° C./75% RH for 6 months) was “stable”. For the setting “start”, the “content (%) (converted into dehydrated form)” value amounted to 99.5% and the “water content (%)” value is on record as 0.1%.
